This is an account of results in PubChem BioAssay AID2305 (GlaxoSmithKline (GSK), 2010).

In this assay the test system is P. falciparum 3D7 growth, pLDH absorbance. Description: P. falciparum 3D7 growth inhibition, dose response, strain 3D7 (AID 2305).

pIC50: −log10 of the molar value. Several values for one entry are separate records, joined by “and”; a condition that tells them apart may be missing. Equal values may be shown once.

`O=C(N[C@H]1CCN(CCc2ccc(O[C@H]3CCNC3)cc2)C1)c1ccc(Cl)c(Cl)c1`: the pIC50 (usually the IC50 on a negative log10 scale, so that one unit is a factor of ten) is 6.08. With `O=C(NCc1ccc(C(=O)N2CCC(N3CCCCC3)CC2)cc1)c1cc(-c2cccc(C(F)(F)F)c2)ccc1O` the figure was 6.09. In the case of `CC(=O)N[C@H](C(=O)Nc1ccc(-c2cccc(-c3nc4c(C)cccc4[nH]3)c2)cc1)C(C)C`, the pIC50 is 5.96.

On to `COc1cc(Nc2ccnc3cc(-c4ccccn4)ccc23)cc(OC)c1OC`, for which the negative logarithm of the IC50 (pIC50) was 6.04. Then `O=C(NCC(CCCN1CCC(c2c[nH]c3ccccc23)CC1)c1ccccc1)Nc1ccc(Cl)c(Cl)c1` (centres undefined), with 6.10; and `CN(CCc1ccccc1)c1ncc(-c2ccccc2CNCc2ccccc2O)cn1`, with 5.99; and `CCCC(C)c1cnc2nc(N)nc(N)c2c1C` (centres undefined), with 7.52. With `CCCC(C)Nc1nc(C)cc(N[C@@H](CC(C)C)C(=O)NC2CCCC2)n1` (some centres undefined) the figure was 5.97; with `CCOc1cc2ncnc(Nc3ccc(OCc4c(F)cccc4F)c(OC)c3)c2cc1OCC`, 6.09; with `NCc1ccc(CNCc2ccc(-c3ccc(-c4nc5ccc(C(F)(F)F)cc5[nH]4)s3)cc2)cc1`, 6.80. Molecule `[O-]c1n[n+](C2CCCCC2)no1` gave a pIC50 of 6.03.

Regarding `CC(C)C[C@H](NC(=O)c1cc2ccccc2s1)C(=O)N[C@H]1CCN(Cc2ccc(OCCCN(C)C)c(Cl)c2)C1`, the pIC50 is 6.05. Then `Cc1c(Cl)cccc1S(=O)(=O)N1CCCCC(c2ccc(C(F)(F)F)cc2)=N1`, with 6.10; and `CCNCc1ccc(-c2cccc(-c3nc4ccccc4[nH]3)c2)cc1`, with 6.26. With `CCN(CC)c1ccc(C(c2ccc(N(CC)CC)cc2)c2cccc([N+](=O)[O-])c2)cc1` the figure was 6.42; with `O=C(Nc1ccc(S(=O)(=O)N2CCCCC2)cc1)c1cc(-c2cc(Cl)ccc2O)n[nH]1`, 6.09; with `COc1ccc(-c2onc(C(F)(F)F)c2-c2cc3ccccc3o2)c(O)c1`, 6.07. In turn, `COc1ccc(Br)cc1C1Nc2ccc3ccccc3c2C2=C1C(=O)CC(c1ccccc1)C2` (centres undefined) had a pIC50 of 6.23. The pIC50 values of the last two molecules are within 0.2 log units of each other. For the molecule `Cc1cc(OCCCN2CCCCC2)ccc1NC(=O)COc1ccc(Cl)cc1C(=O)c1cc(C#N)cc(C(F)(F)F)c1`, the pIC50 was 5.99. This pIC50 lies 0.24 log units lower than the previous one.

Take `Cc1ccc(C(=O)c2oc3ccc4c(C)cc(=O)oc4c3c2C)cc1`: the pIC50 is 5.99. `CC(C)Oc1cc2c(cc1NS(=O)(=O)c1ccc(-c3ccc(Cl)cc3)cc1)CCN(C)CC2` had a pIC50 of 5.98. In turn, `CC(C)CNCc1ccc(-c2ccc(CN(C(=O)NCCc3ccccc3)C3CCN(Cc4ccccc4)CC3)cc2)cc1` showed a negative-log IC50 (pIC50) of 6.15. With `CNC(=O)c1cc(S(=O)(=O)N2CCN(c3ccccn3)CC2)c(C)s1` the figure was 5.94.

`FC(F)(F)c1ccc2nc(-c3ccc(-c4cccc(CN5CCN(CCN6CCOCC6)CC5)c4)cc3)[nH]c2c1` had a negative-log IC50 (pIC50) of 6.80.

Take `CCc1ccc(NC(=O)c2ccc(CN3CCCN(Cc4cccc(Cl)c4)CC3)cc2)cc1`: the pIC50 is 5.95. Against the preceding molecule, the pIC50 is 0.85 log units lower. Molecule `CCc1c(C)nc(-n2nc(C)cc2NC(=O)c2cccc3ccccc23)[nH]c1=O` showed a pIC50 of 6.17. This pIC50 lies 0.22 log units higher than the previous one. Then `CC(C)(C)C(=O)Oc1ccc(CC2NCCc3cc(OC(=O)C(C)(C)C)c(OC(=O)C(C)(C)C)cc32)cc1OC(=O)C(C)(C)C` (centres undefined), with 6.38; and `Cc1cccc2[nH]c(-c3ccc(-c4ccc(CNCc5cnn(-c6ccccc6)n5)cc4)cc3)nc12`, with 6.37. With `NC(=O)c1ccc(NCC(=O)Nc2cccc(-c3cccc(-c4nc5ccccc5[nH]4)c3)c2)cc1` the figure was 6.00; with `Cn1nc(-c2ccc(S(=O)(=O)NC3CCC(CN4CCC(c5c[nH]c6ccccc56)CC4)CC3)s2)cc1C(F)(F)F` (centres undefined), 6.08 and 6.09; with `COc1ccc(NC(=O)N2CCCN(CCCCCNC(=O)/C=C/c3ccc(C(F)(F)F)cc3)CC2)cc1Cl`, 6.01.

`CCCCCOc1c(CCC)cc(Cc2cnc(N)nc2N)cc1CCC` gave a pIC50 of 6.05. The pIC50 values of the last two molecules are within 0.2 log units of each other. For `CC(=O)C1=NN(c2ccc(Cl)cc2)C(c2cccs2)N1c1ccccc1` (centres undefined), the pIC50 is 6.40. Then `Cc1cccc2[nH]c(-c3ccc(-c4cccc(NC(=O)Nc5ccsc5)c4)cc3)nc12`, with 6.10; and `Cc1ccccc1C1CCN(C2CCC(NC(=O)/C=C/c3cccc(Cl)c3F)CC2)CC1` (centres undefined), with 5.94. With `COc1cc(-c2[nH]c(-c3ccc(OCCN(C)C)cc3)cc2-c2ccncc2)ccc1Cl` the figure was 5.75; with `CC(C)Cn1c(N)cc(=O)n(C)c1=O`, 6.01; with `CC(CCc1ccccc1)NCC(O)c1ccc2c3c(cccc13)C(=O)N2C` (centres undefined), 6.09. With `Cc1cccc2[nH]c(-c3cccc(-c4ccc(CNCc5cccc(N)c5)cc4)c3)nc12` the figure was 6.59; with `Cc1cc(Nc2ncc(Cl)c(Nc3ccccc3C(N)=O)n2)n[nH]1`, 6.09; with `O=C(Nc1cc(C(F)(F)F)cc(C(F)(F)F)c1)NC(CCCN1CCC2(CC1)OCc1ccccc12)c1ccc(Cl)c(Cl)c1` (centres undefined), 6.09. Consider `COc1cc(-c2nc3c4ccccc4c4ccccc4c3[nH]2)cc(OC)c1OC`, for which the pIC50 was 6.07. For the molecule `O=C1O[C@H](c2ccccc2)[C@H](c2ccccc2)N(C(=O)OCc2ccccc2)[C@H]1Cc1ccccc1C1CCCC1`, the pIC50 was 7.22. Then `Cc1cc(C)c2oc(-c3cccc(NC(=O)c4ccc([N+](=O)[O-])o4)c3C)nc2c1`, with 5.94.
